Laboratory results published in the OligoGym collection.
HELM strings list units from the 5' end as sugar, base in round brackets, then linkage (d deoxyribose, r ribose, m 2'-O-methyl, p phosphodiester). Strings are as the collection lists them, not checked against the first reports. ss, as = sense and antisense strand; [fl2r] = 2'-fluoro

Conditions: siRNA
Note: test system not given here.

Substance	target mRNA knockdown [%]
RNA1{m(U)p.r(G)p.r(A)p.r(A)p.r(C)p.r(G)p.r(U)p.m(C)p.r(A)p.r(C)p.r(C)p.r(G)p.r(A)p.r(G)p.r(G)p.r(A)p.r(G)p.r(A)p.r(A)p.r(T)p.r(T)}|RNA2{r(U)p.r(U)p.r(C)p.r(U)p.r(C)p.r(C)p.r(U)p.r(C)p.r(G)p.r(G)p.m(U)p.r(G)p.r(A)p.r(C)p.r(G)p.r(U)p.r(U)p.m(C)p.r(A)p.r(T)p.r(T)}$$$RNA1{StrandType:ss}|RNA2{StrandType:as}$	82
RNA1{m(U)p.r(U)p.m(A)p.r(A)p.m(A)p.r(G)p.m(G)p.r(G)p.m(C)p.r(G)p.m(A)p.r(G)p.m(A)p.r(A)p.m(G)p.r(A)p.m(C)p.r(C)p.m(G)p.r(T)p.r(T)}|RNA2{r(C)p.r(G)p.r(G)p.r(U)p.r(C)p.r(U)p.r(U)p.r(C)p.r(U)p.r(C)p.r(G)p.r(C)p.r(C)p.r(C)p.r(U)p.r(U)p.r(U)p.r(A)p.r(A)p.r(T)p.r(T)}$$$RNA1{StrandType:ss}|RNA2{StrandType:as}$	67
RNA1{m(U)p.r(U)p.m(A)p.r(A)p.m(G)p.r(G)p.m(A)p.r(G)p.m(A)p.r(A)p.m(G)p.r(C)p.m(U)p.r(G)p.m(A)p.r(C)p.m(G)p.r(G)p.m(C)p.r(T)p.r(T)}|RNA2{m(G)p.r(C)p.r(C)p.m(G)p.r(U)p.r(C)p.r(A)p.m(G)p.r(C)p.r(U)p.r(U)p.r(C)p.r(U)p.r(C)p.r(C)p.r(U)p.r(U)p.r(A)p.r(A)p.r(T)p.r(T)}$$$RNA1{StrandType:ss}|RNA2{StrandType:as}$	45
RNA1{m(U)p.r(U)p.m(A)p.r(A)p.m(G)p.r(G)p.m(A)p.r(G)p.m(A)p.r(A)p.m(G)p.r(C)p.m(U)p.r(G)p.m(A)p.r(C)p.m(G)p.r(G)p.m(C)p.r(T)p.r(T)}|RNA2{r(G)p.r(C)p.r(C)p.r(G)p.r(U)p.r(C)p.r(A)p.r(G)p.r(C)p.r(U)p.r(U)p.r(C)p.r(U)p.r(C)p.r(C)p.r(U)p.r(U)p.r(A)p.r(A)p.r(T)p.r(T)}$$$RNA1{StrandType:ss}|RNA2{StrandType:as}$	24
RNA1{m(U)p.r(U)p.m(A)p.r(C)p.m(A)p.r(A)p.m(A)p.r(G)p.m(G)p.r(A)p.m(U)p.r(C)p.m(U)p.r(C)p.m(C)p.r(U)p.m(C)p.r(C)p.m(C)p.r(T)p.r(T)}|RNA2{r(G)p.r(G)p.r(G)p.m(A)p.r(G)p.r(G)p.m(A)p.r(G)p.m(A)p.r(U)p.r(C)p.r(C)p.r(U)p.r(U)p.r(U)p.r(G)p.r(U)p.m(A)p.m(A)p.r(T)p.r(T)}$$$RNA1{StrandType:ss}|RNA2{StrandType:as}$	51
RNA1{m(U)p.r(U)p.m(A)p.r(C)p.m(A)p.r(A)p.m(A)p.r(G)p.m(G)p.r(A)p.m(U)p.r(C)p.m(U)p.r(C)p.m(C)p.r(U)p.m(C)p.r(C)p.m(C)p.r(T)p.r(T)}|RNA2{r(G)p.r(G)p.r(G)p.r(A)p.r(G)p.r(G)p.r(A)p.r(G)p.r(A)p.r(U)p.m(C)p.m(C)p.r(U)p.r(U)p.r(U)p.r(G)p.r(U)p.r(A)p.r(A)p.r(T)p.r(T)}$$$RNA1{StrandType:ss}|RNA2{StrandType:as}$	57
RNA1{m(U)p.r(U)p.m(G)p.r(G)p.m(G)p.r(G)p.m(A)p.r(A)p.m(G)p.r(C)p.m(G)p.r(G)p.m(C)p.r(C)p.m(G)p.r(G)p.m(C)p.r(G)p.m(G)p.r(T)p.r(T)}|RNA2{r(C)p.r(C)p.r(G)p.r(C)p.r(C)p.r(G)p.r(G)p.r(C)p.r(C)p.r(G)p.r(C)p.r(U)p.r(U)p.r(C)p.r(C)p.r(C)p.r(C)p.m(A)p.m(A)p.r(T)p.r(T)}$$$RNA1{StrandType:ss}|RNA2{StrandType:as}$	36
RNA1{m(U)p.r(U)p.m(U)p.r(G)p.m(A)p.r(U)p.m(C)p.r(A)p.m(G)p.r(C)p.m(G)p.r(G)p.m(A)p.r(G)p.m(A)p.r(C)p.m(U)p.r(C)p.m(G)p.r(T)p.r(T)}|RNA2{r(C)p.r(G)p.r(A)p.r(G)p.r(U)p.r(C)p.r(U)p.r(C)p.r(C)p.m(G)p.r(C)p.r(U)p.r(G)p.r(A)p.m(U)p.r(C)p.r(A)p.r(A)p.r(A)p.r(T)p.r(T)}$$$RNA1{StrandType:ss}|RNA2{StrandType:as}$	49
RNA1{r(A)p.[fl2r](A)p.r(G)p.r(G)p.r(C)p.[fl2r](C)p.r(A)p.r(A)p.r(C)p.r(C)p.r(G)p.r(A)p.[fl2r](U)p.r(A)p.r(C)p.r(U)p.r(U)p.r(C)p.r(U)p.r(T)p.r(T)}|RNA2{r(A)p.r(G)p.r(A)p.r(A)p.r(G)p.[fl2r](U)p.r(A)p.r(U)p.r(C)p.r(G)p.r(G)p.r(U)p.[fl2r](U)p.r(G)p.r(G)p.r(C)p.r(C)p.r(U)p.r(U)p.r(T)p.r(T)}$$$RNA1{StrandType:ss}|RNA2{StrandType:as}$	68
RNA1{r(A)p.[fl2r](C)p.r(A)p.[fl2r](U)p.r(A)p.[fl2r](G)p.r(A)p.r(G)p.r(G)p.r(A)p.r(A)p.r(G)p.r(A)p.r(C)p.r(G)p.r(C)p.r(G)p.r(G)p.r(A)p.r(T)p.r(T)}|RNA2{r(U)p.r(C)p.r(C)p.r(G)p.r(C)p.r(G)p.r(U)p.r(C)p.r(U)p.r(U)p.r(C)p.r(C)p.r(U)p.r(C)p.[fl2r](U)p.r(A)p.[fl2r](U)p.r(G)p.r(U)p.r(T)p.r(T)}$$$RNA1{StrandType:ss}|RNA2{StrandType:as}$	86
RNA1{r(A)p.m(A)p.r(G)p.m(G)p.r(A)p.m(G)p.r(A)p.m(U)p.r(C)p.m(A)p.r(A)p.m(C)p.r(A)p.m(U)p.r(U)p.m(U)p.r(U)p.m(C)p.r(A)p.r(T)p.r(T)}|RNA2{m(U)p.r(G)p.m(A)p.r(A)p.m(A)p.r(A)p.m(U)p.r(G)p.m(U)p.r(U)p.m(G)p.r(A)p.m(U)p.r(C)p.m(U)p.r(C)p.m(C)p.r(U)p.m(U)p.r(T)p.r(T)}$$$RNA1{StrandType:ss}|RNA2{StrandType:as}$	83
RNA1{r(A)p.m(A)p.r(G)p.m(G)p.r(A)p.m(G)p.r(A)p.m(U)p.r(C)p.m(A)p.r(A)p.m(C)p.r(A)p.m(U)p.r(U)p.m(U)p.r(U)p.m(C)p.r(A)p.r(T)p.r(T)}|RNA2{r(U)p.m(G)p.r(A)p.m(A)p.r(A)p.m(A)p.r(U)p.m(G)p.r(U)p.m(U)p.r(G)p.m(A)p.r(U)p.m(C)p.r(U)p.m(C)p.r(C)p.m(U)p.r(U)p.r(T)p.r(T)}$$$RNA1{StrandType:ss}|RNA2{StrandType:as}$	61
RNA1{r(A)p.m(C)p.m(A)p.r(G)p.r(A)p.r(A)p.r(A)p.r(G)p.m(A)p.r(G)p.r(U)p.r(U)p.r(C)p.r(G)p.r(A)p.r(G)p.r(G)p.r(A)p.r(G)p.r(T)p.r(T)}|RNA2{r(C)p.r(U)p.r(C)p.r(C)p.r(U)p.r(C)p.r(G)p.r(A)p.r(A)p.r(C)p.r(U)p.r(C)p.r(U)p.r(U)p.r(U)p.r(C)p.m(U)p.r(G)p.r(U)p.r(T)p.r(T)}$$$RNA1{StrandType:ss}|RNA2{StrandType:as}$	61
RNA1{r(A)p.m(C)p.m(C)p.m(U)p.m(U)p.m(U)p.m(C)p.m(C)p.r(A)p.m(C)p.m(U)p.m(U)p.m(C)p.m(U)p.r(A)p.r(A)p.r(G)p.m(C)p.m(C)p.r(T)p.r(T)}|RNA2{r(G)p.r(G)p.r(C)p.r(U)p.r(U)p.r(A)p.r(G)p.r(A)p.r(A)p.r(G)p.r(U)p.r(G)p.r(G)p.r(A)p.r(A)p.r(A)p.r(G)p.r(G)p.r(U)p.r(T)p.r(T)}$$$RNA1{StrandType:ss}|RNA2{StrandType:as}$	75
RNA1{r(A)p.m(C)p.r(A)p.r(G)p.r(A)p.r(A)p.r(A)p.r(G)p.r(A)p.r(G)p.r(U)p.r(U)p.r(C)p.r(G)p.r(A)p.r(G)p.r(G)p.r(A)p.r(G)p.r(T)p.r(T)}|RNA2{r(C)p.r(U)p.r(C)p.r(C)p.r(U)p.r(C)p.r(G)p.r(A)p.r(A)p.r(C)p.r(U)p.r(C)p.r(U)p.r(U)p.r(U)p.r(C)p.m(U)p.r(G)p.r(U)p.r(T)p.r(T)}$$$RNA1{StrandType:ss}|RNA2{StrandType:as}$	64
RNA1{r(A)p.m(G)p.r(A)p.m(U)p.r(G)p.m(U)p.m(U)p.m(C)p.m(U)p.m(C)p.r(G)p.m(U)p.r(A)p.r(A)p.m(G)p.r(G)p.r(A)p.m(C)p.r(G)p.r(T)p.r(T)}|RNA2{r(C)p.r(G)p.r(U)p.r(C)p.r(C)p.r(U)p.r(U)p.r(A)p.r(C)p.r(G)p.r(A)p.r(G)p.r(A)p.r(A)p.r(C)p.r(A)p.r(U)p.r(C)p.r(U)p.r(T)p.r(T)}$$$RNA1{StrandType:ss}|RNA2{StrandType:as}$	53
RNA1{r(A)p.m(U)p.m(C)p.r(G)p.r(A)p.m(C)p.m(C)p.m(U)p.r(G)p.r(A)p.r(A)p.r(G)p.r(G)p.r(A)p.r(G)p.m(U)p.r(A)p.m(C)p.r(G)p.r(T)p.r(T)}|RNA2{m(C)p.r(G)p.m(U)p.r(A)p.m(C)p.m(U)p.m(C)p.m(C)p.m(U)p.m(U)p.m(C)p.r(A)p.r(G)p.r(G)p.m(U)p.m(C)p.r(G)p.r(A)p.m(U)p.r(T)p.r(T)}$$$RNA1{StrandType:ss}|RNA2{StrandType:as}$	19
RNA1{r(A)p.m(U)p.r(A)p.r(C)p.r(U)p.m(U)p.m(G)p.r(G)p.r(C)p.r(G)p.r(G)p.r(G)p.m(C)p.r(U)p.r(C)p.r(U)p.r(U)p.r(U)p.r(C)p.r(T)p.r(T)}|RNA2{r(G)p.r(A)p.r(A)p.r(A)p.r(G)p.r(A)p.r(G)p.r(C)p.r(C)p.r(C)p.r(G)p.r(C)p.m(C)p.r(A)p.r(A)p.r(G)p.m(U)p.r(A)p.r(U)p.r(T)p.r(T)}$$$RNA1{StrandType:ss}|RNA2{StrandType:as}$	70
RNA1{r(A)p.m(U)p.r(A)p.r(C)p.r(U)p.m(U)p.r(G)p.r(G)p.r(C)p.m(G)p.r(G)p.r(G)p.r(C)p.r(U)p.r(C)p.r(U)p.r(U)p.r(U)p.r(C)p.r(T)p.r(T)}|RNA2{r(G)p.r(A)p.r(A)p.r(A)p.r(G)p.r(A)p.r(G)p.r(C)p.r(C)p.r(C)p.r(G)p.r(C)p.m(C)p.r(A)p.r(A)p.r(G)p.m(U)p.r(A)p.r(U)p.r(T)p.r(T)}$$$RNA1{StrandType:ss}|RNA2{StrandType:as}$	42
RNA1{r(A)p.m(U)p.r(A)p.r(C)p.r(U)p.r(U)p.r(G)p.r(G)p.r(C)p.r(G)p.r(G)p.r(G)p.r(C)p.r(U)p.r(C)p.r(U)p.r(U)p.r(U)p.r(C)p.r(T)p.r(T)}|RNA2{r(G)p.r(A)p.r(A)p.r(A)p.r(G)p.r(A)p.r(G)p.r(C)p.r(C)p.r(C)p.r(G)p.r(C)p.r(C)p.r(A)p.r(A)p.r(G)p.r(U)p.r(A)p.r(U)p.r(T)p.r(T)}$$$RNA1{StrandType:ss}|RNA2{StrandType:as}$	48
RNA1{r(A)p.m(U)p.r(G)p.r(G)p.r(G)p.r(A)p.r(G)p.r(A)p.r(A)p.r(G)p.m(U)p.r(A)p.r(G)p.r(U)p.r(C)p.r(C)p.r(C)p.r(C)p.r(C)p.r(T)p.r(T)}|RNA2{r(G)p.r(G)p.r(G)p.r(G)p.r(G)p.r(A)p.r(C)p.m(U)p.r(A)p.r(C)p.r(U)p.r(U)p.r(C)p.r(U)p.r(C)p.r(C)p.m(C)p.r(A)p.r(U)p.r(T)p.r(T)}$$$RNA1{StrandType:ss}|RNA2{StrandType:as}$	82
